Measured values published in US20090325960A1, “METHOD FOR TREATING INFLAMMATORY DISEASES USING RHO KINASE INHIBITOR COMPOUNDS” (priority 2008, published 2009).
Read-outs that look alike come from different tables or passages of the source.

Experiments:
[1] = system: ova-sensitized, ova-challenged BALB/c mice; assay: In vivo anti-inflammatory activity, mouse ovalbumin sensitization model (BALF cells and cytokines)
Procedure: Upon arrival, the animals were randomized into groups of five males per cage and assigned to a dosing group. Animals were quarantined for 7 days under test conditions. […] Animals were sensitized on day 0 and 14 of study by an intraperitoneal injection with 20 μg of ovalbumin (ova) and 2.0 mg aluminum hydroxide (alum) which initiates the development of a specific T-helper (Th) cells type 2 resulting in asthmatic animals (denoted as Ova in the fugures). One group of animals received an injection of saline to use as control animals (denoted as normal in the figures). […] Aerosol challenge consists of using an Aerogen Aeroneb nebulizer and controller with a particle size of 4-6 μm mass median aerodynamic diameter (MMAD) with a distribution of 400 μl per minute. This aerosol challenge is necessary to target the Th2-driven allergic inflammation in the lower airways.
The anti-inflammatory dosing paradigm (FIG. 5) was utilized to evaluate the anti-inflammatory effects of experimental compounds. […] On day 32 of the experiment, after measurement of airway hyperreactivity, BALF was collected and all animals were anesthetized, bled and euthanized.
Bronchoalveolar lavage fluid (BALF) was collected by infusing 3.0 ml of saline with 10% fetal calf serum into the lungs via the trachea and then withdrawing the fluid. The total amount of cells/ml of BALF fluid was determined via manual cell count on hemocytometer. The BALF was centrifuged, supernatant removed and analyzed for cytokine concentrations as described below, and cell pellet reconstituted in 500 μL of fluid. Cytospin slides were prepared from the cell pellet using 100 μL of fluid and spinning samples for 5 minutes at 5000 rpms in a cytospin centrifuge, Following Hema3 stain, relative percentages of individual leukocytes were determined on a 200 cell count for each sample. The final concentration of individual leukocyte cell types per ml of BALF was determined by multiplication of the relative percentage of individual leukocytes with the total amount of cells/ml of BALF fluid.
The concentrations of cytokines in the BALF samples were determined using commercially available Bio-plex kits (Bio-Rad) for the detection of mouse IL-5, IL-13, and Eotaxin. The analysis of cytokine levels was measured using the Bio-Plex 200 (Bio-Rad) system according to the manufacturer's instructions.

[2] = system: cytokine secretion from LPS-stimulated human monocytes; assay: Human monocyte cytokine secretion assay (LPS-stimulated); type: cell-based
Procedure: Peripheral blood from healthy human volunteers was collected and the monocytes isolated via Ficoll-paque density centrifugation. […] The cells were allowed to pre-incubate with test compound at the indicated concentration for 30 minutes (37° C., 5% CO2, humidified air); after which the supernatant was removed and media containing compound and 1 ng/mL LPS was added. Cells were allowed to incubate with compounds and LPS for 4 hours at 37° C. after which the supernatant was removed and stored at −80° C. Cytokine concentrations in the supernatant were determined using commercially available Bio-Rad Bio-Plex™ kits according the manufacturer's instructions.

[3] = system: LPS-challenged BALB/c mice; assay: LPS-induced neutrophilia and cytokine production assay; type: in vivo, mouse; conditions: for IL-1β levels in BALF: intratracheal administration, LPS-challenged animals
Procedure: Male BALB/c mice, approximately 19 to 21 grams, were ordered from Charles River Laboratories (Raleigh, N.C.). All animals were challenged with aerosolized LPS (10 μg/ml) for 25 minutes on study day 0. LPS aerosol was generated using an Aerogen Aeroneb nebulizer and controller providing a flow of 400 μl/min and a particle size of 2-4 μm MMAD. Rolipram was administered i.p at 20 mg/kg. […] Four hours following LPS challenge, BALF was collected using a total of 3 ml of 0.9% sodium chloride containing 10% fetal calf serum. Total cell counts were determined using the Coulter Counter. For differential evaluations, BALF was centrifuged and cytospin slides prepared and stained with Hema3 stain. Manual leukocyte counts were then completed on 200 cells. The final concentration of individual leukocyte cell types per ml of BALF was determined by multiplication of the relative percentage of individual leukocytes with the total amount of cells/ml of BALF fluid. The concentration of IL-1β in the BALF samples was determined using commercially available Bio-plex kits (Bio-Rad). The analysis of cytokine levels was measured using the Bio-Plex 200 (Bio-Rad) system according to the manufacturer's instructions.

[4] = Compound concentrations in lungs of ova-sensitized mice post IP, PO and IT administration; type: in vivo; conditions: male, Balb/c, mouse, lung, other: intratracheal (IT), BD model, IT 5 μmol/kg, read-out: Lung, nM (plasma corrected lung concentration)
Procedure: Additionally, compound concentrations were determined in the plasma and lungs of male, ovalbumin-sensitized, Balb/c mice from a murine model of asthma. Test compounds were formulated in water or 1% polysorbate 80 and dosed at 15 μmol/kg for intraperitoneal (IP) or oral (PO) administration or formulated for intratracheal (IT) administration and dosed at 5 μmol/kg, which directly targets the lungs. Following completion of the in vivo study, mice were euthanized and blood and plasma collected approximately 2.5-3 hours post administration of test compound for bronchodialator (BD) studies and 24 hours post administration for anti-inflamatory (AI) studies. Lungs were homogenized in Matrix A lysing tubes using a FastPrep 24 tissue and cell homogenizer (MP Biomedicals, Solon, Ohio). Both plasma samples and lung extracts were assayed for compound concentrations using an on-line, solid phase extraction LC/MS/MS system. The actual lung tissue concentrations of each compound in mouse were extrapolated from the lung and plasma concentrations, data are shown in Table 11. The results of a set of experiments using unsensitized mice and collecting only plasma 15 minutes post administration of test compounds are shown in Table 12.

[5] = Rat oral pharmacokinetics (plasma); type: in vivo; conditions: rat oral PK, mean of n = 3 rats
Procedure: Plasma (EDTA K2 anticoagulant) was collected from male, cannulated, CD Sprague Dawley rats to determine the pharmacokinetics of formulations containing compound inhibitors of Rho kinase. Each animal was dosed orally with a 4 ml/kg solution or suspension of each test compound in 10 mM acetate buffered saline, pH 4.5 at a final concentration range of 20-30 mol/kg. Blood was collected at 0.25, 0.5, 1, 2, 4, 6, 8, and 24 hours. Plasma samples were assayed for the concentration of the test compound using an on-line, solid phase extraction LC/MS/MS analysis system.
Pharmacokinetic analyses were performed using WinNonlin software version 5.2 (Pharsight Corporation, Mountain View, Calif.).
As determined from the plasma concentration versus time curves, the time to peak and peak exposure are represented by the values Tmax and Cmax, respectively. The AUC values (nM*hr) shown were calculated as the areas under the plasma concentration versus time curves from time zero through the time of the last observable value and represent the total exposure of the compound over the course of the study. Half-life values or the amount of time required for the plasma levels of the compound to decline to half the initial value are represented as t1/2.

[6] = system: ova-sensitized, ova-challenged BALB/c mice; assay: Prevention of airway hyperreactivity (Penh, methacholine) in mouse ovalbumin sensitization model; type: in vivo; conditions: for airway hyperreactivity: intratracheal once a day
Procedure: The anti-inflammatory dosing paradigm consists of dosing the animals once a day starting on day 27 and finishing on either day 30 or 31 (1 hr prior to the aerosolized ovalbumin challenges on days 28 to 30) but not on day 32 when hyperreactivity evaluation occurs. […] Exposure to the methacholine doses consisted of a 3 minute period during which a nebulizer was aerosolizing the methacholine and an additional 3 minute period following the cessation of nebulization. […] Enhanced pause (Penh), a unitless index of airway hyperreactivity, is derived from the expiratory side of the respiratory waveform measured via the plethysmograph and is used as an indirect measure of airway resistance and hyperreactivity. […] Following the methacholine dose response, BALF was collected and all animals were anesthetized, bled and euthanized. […] The Penh value at each of the dose levels of methacholine represents the 6-minute average response. Change from baseline (CFB) in Penh was calculated at each methacholine dose and the area under the curve (AUC) for these CFB values was calculated using the trapezoidal rule. This same approach was applied for each mouse across multiple experiments. […] Data from equal experimental conditions across experiments performed on different days were pooled for statistical analysis and data reporting. […] A random intercept for each experiment was assumed to account for possible similarities of the results obtained from a given experiment (i.e., as a “blocking effect”). […] For FIG. 11, linear AUC values from compound treated mice were reported as a percent of linear AUC values from vehicle-treated ovalbumin-sensitized/ovalbumin-challenged (asthmatic) mice.

ERK1 = target: T1, ERK1 (Homo sapiens, UniProt P27361); assay: Kinase panel screen (KinaseProfiler), ERK1; type: biochemical; conditions: 1 μM test compound, 10 μM ATP
T1 construct: purchased Upstate, Millipore Bioscience Division (KinaseProfiler service)
T1 sequence (P27361 whole entry): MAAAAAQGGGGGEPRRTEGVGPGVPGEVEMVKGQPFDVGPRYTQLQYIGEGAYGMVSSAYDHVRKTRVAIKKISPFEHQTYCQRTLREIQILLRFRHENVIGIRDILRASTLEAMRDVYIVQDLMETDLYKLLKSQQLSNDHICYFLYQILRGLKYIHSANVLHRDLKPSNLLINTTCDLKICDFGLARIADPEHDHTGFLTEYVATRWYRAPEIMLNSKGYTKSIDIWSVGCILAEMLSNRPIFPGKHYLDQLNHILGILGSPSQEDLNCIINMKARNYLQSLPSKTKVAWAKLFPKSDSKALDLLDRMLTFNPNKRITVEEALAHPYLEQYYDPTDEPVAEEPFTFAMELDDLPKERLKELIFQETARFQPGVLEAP
Procedure: (§1) Compounds of Formulae I and II were examined for activity against a selected panel of kinases using the KinaseProfiler™ enzyme profiling services (Upstate, Millipore Bioscience Division). Percent kinase activity at 10 μM and 1 μM test compound and 10 μM ATP was determined against 40 wild-type recombinant human kinases according to Upstate's standard protocol: ASK1, BTK, CSK, c-RAF, GCK, GSK3β, IKKα, IKKβ, IRAK1, IRAK4, JNK1α1, JNK2α2, JNK3, ERK1, ERK2, MAPKAP-K2, MAPKAP-K3, MEK1, MKK4, MKK6, MKK7β, Mnk2, MSK1, PAK3, PDK1, PRAK, ROCK1, Rsk2, SAPK2a, SAPK2b, SAPK3, SAPK4, SRPK1, SRPK2, Syk, TAK1, TBK1, PI3-Kβ, PI3-Kγ, PI3-Kδ.

Mnk2 = target: T2, Mnk2 (Homo sapiens, UniProt Q9HBH9); type: biochemical
T2 construct: purchased Upstate, Millipore Bioscience Division (KinaseProfiler service)
T2 sequence (Q9HBH9 whole entry): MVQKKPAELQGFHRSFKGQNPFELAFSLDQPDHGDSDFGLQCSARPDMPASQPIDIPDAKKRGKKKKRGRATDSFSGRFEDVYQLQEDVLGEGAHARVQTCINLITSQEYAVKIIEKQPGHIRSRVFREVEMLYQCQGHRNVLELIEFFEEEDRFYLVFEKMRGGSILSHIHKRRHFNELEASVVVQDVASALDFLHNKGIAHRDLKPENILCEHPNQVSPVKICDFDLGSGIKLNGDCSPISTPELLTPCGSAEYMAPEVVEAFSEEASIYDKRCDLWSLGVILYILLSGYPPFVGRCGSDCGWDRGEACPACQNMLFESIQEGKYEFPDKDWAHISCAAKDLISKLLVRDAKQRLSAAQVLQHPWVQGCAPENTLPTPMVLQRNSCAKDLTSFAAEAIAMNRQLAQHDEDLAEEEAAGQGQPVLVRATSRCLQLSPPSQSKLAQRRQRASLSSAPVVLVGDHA
Procedure: as §1

ERK2 = target: T3, ERK2 (Homo sapiens, UniProt P28482); assay: Kinase panel screen (KinaseProfiler), ERK2; type: biochemical; conditions: 1 μM test compound, 10 μM ATP; read-out: Percent inhibition ERK2 at 1 μM
T3 construct: purchased Upstate, Millipore Bioscience Division (KinaseProfiler service)
T3 sequence (P28482 whole entry): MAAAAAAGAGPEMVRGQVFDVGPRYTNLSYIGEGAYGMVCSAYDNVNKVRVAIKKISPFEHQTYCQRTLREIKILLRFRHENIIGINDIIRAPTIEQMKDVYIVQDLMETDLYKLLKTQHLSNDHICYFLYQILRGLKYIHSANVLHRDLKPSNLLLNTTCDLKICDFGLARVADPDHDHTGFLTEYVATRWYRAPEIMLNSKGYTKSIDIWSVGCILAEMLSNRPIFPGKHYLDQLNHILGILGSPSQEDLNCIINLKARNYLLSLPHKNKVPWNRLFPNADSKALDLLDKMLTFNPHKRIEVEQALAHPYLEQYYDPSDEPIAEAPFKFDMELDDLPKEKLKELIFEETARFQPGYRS
Procedure: as §1

human neutrophils = assay: Human neutrophil chemotaxis (fMLP-induced, Boyden chamber); type: cell-based; conditions: average
Procedure: Peripheral blood from healthy human volunteers was collected and the neutrophils were isolated by Ficoll-paque density centrifugation followed by dextran sedimentation and hypotonic lysis of the red blood cells. Neutrophil chemotaxis was assessed using a modified Boyden Chamber (Neuroprobe, 96-well) with a 3 μm pore polycarbonate membrane. The ability of the tested compounds to block chemotaxis induced by a 1 μM fMLP challenge during a one hour incubation at 37° C. with 5% CO2 was assessed in a dose response manner.

human eosinophils = assay: Human eosinophil chemotaxis (eotaxin-induced); type: cell-based; conditions: 1 nM eotaxin challenge
From the text: Human Eosinophil Isolation: Peripheral blood from healthy human volunteers was collected and the PMNs separated via Ficoll-paque density centrifugation followed by hypotonic lysis of the red blood cells. Subsequently, the human eosinophils were isolated from the cell suspension via StemCell Technologies Human Eosinophil Enrichment kit (Cat. No 19256) according to the manufacturer's recommendations. Briefly, unwanted cells were specifically labeled with dextran-coated magnetic nanoparticles using bispecific Tetrameric Antibody Complexes (TAC) directed against cell surface antigens on human blood cells: CD2, CD3, CD14, CD16, CD19, CD20CD36, CD56, CD123, glycophorin A and dextran. The unwanted cells are then separated from the unlabelled eosinophils using the EasySep® magnetic isolation procedure.
(§2) In Vitro Chemotaxis: Eosinophil chemotaxis was assessed using a modified Boyden Chamber (Neuroprobe, 96-well) with a 5 μm pore membrane. The ability of the tested compounds to block chemotaxis induced by a 10 nM eotaxin challenge (mouse) or 1 nM eotaxin challenge (human) during one hour incubation at 37° C. with 5% CO2 was assessed.

murine eosinophils = assay: Murine eosinophil chemotaxis (eotaxin-induced); type: cell-based, mouse; conditions: 10 nM eotaxin challenge
Procedure: Mouse Eosinophil Isolation: Bronchoalveolar lavage was collected from ovalbumin sensitized and challenged mice in a volume of 2.5 mL lavage buffer. The lavage buffer was 0.9% saline with 10% fetal bovine serum. The pooled lavages were maintained on ice until use. The murine eosinophils were isolated using MACS cell separation (Miltenyi Biotech) by depletion of B cells and T cells by positive selection following incubation with antibody conjugated magnetic beads specific for CD45-R (B220) and CD90 (Thy 1.2), which bind B cells and T cells, respectively.
as §2

ROCK1 = target: T4, ROCK1 (Homo sapiens, UniProt Q13464); assay: Rho kinase inhibition assay (IMAP fluorescence polarization), ROCK1; type: biochemical
T4 construct: purchased Upstate/Chemicon 14-601
T4 sequence (Q13464 17-535 limits assumed): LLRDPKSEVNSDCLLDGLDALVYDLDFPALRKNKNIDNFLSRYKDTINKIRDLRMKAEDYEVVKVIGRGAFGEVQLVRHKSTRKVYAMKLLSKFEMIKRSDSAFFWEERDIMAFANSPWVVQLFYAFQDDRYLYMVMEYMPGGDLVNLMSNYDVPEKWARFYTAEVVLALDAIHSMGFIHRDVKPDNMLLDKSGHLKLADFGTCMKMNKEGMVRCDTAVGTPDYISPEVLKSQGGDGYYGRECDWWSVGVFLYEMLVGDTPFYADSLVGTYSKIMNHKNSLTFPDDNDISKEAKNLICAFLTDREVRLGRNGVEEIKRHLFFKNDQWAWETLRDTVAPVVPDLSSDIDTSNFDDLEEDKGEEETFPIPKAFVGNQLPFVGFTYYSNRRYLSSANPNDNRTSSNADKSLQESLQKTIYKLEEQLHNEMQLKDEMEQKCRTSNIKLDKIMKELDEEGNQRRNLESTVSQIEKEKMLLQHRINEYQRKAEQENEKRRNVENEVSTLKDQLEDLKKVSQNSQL
Procedure: Following the pre-incubation, 10 μM ATP was added to initiate the reaction. After 60 minutes at room temperature, Molecular Devices IMAP™ binding solution was added to bind phosphorylated substrate. After 30 minutes of incubation in the presence of the IMAP™ beads, the fluorescence polarization was read and the ratio was reported as mP. IC50 values for compounds and EC50 values for ATP were calculated using the Prism software from Graphpad.

[7] = Compound plasma concentrations in unsensitized mice at 15 min post administration; type: in vivo; conditions: mouse, 15 μmol/kg; mean plasma concentration in mice at 15 minutes post oral administration; read-out: Mouse Oral PK
[8] = system: A-10 rat thoracic aorta cells; assay: PDGF-stimulated smooth muscle cell proliferation assay (BrdU incorporation); type: cell-based
Procedure: Effects on cell proliferation were measured using a bromodeoxyuridine (BrdU) incorporation assay. […] Serum free media containing 0.1% BSA was added to the cells. 24 hours later the media was removed and replaced with warmed serum free media. […] Proliferation was then monitored using the BrdU Cell Proiferation Assay, HTS (Calbiochem cat. # HTS01). BrdU was allowed to incorporate into cells for 24 hours prior to the addition of fixative/denaturing solution and the fluorometric detection of incorporated BrdU using a BrdU antibody as per manufacturer's directions. Data are reported as a percent of the PDGF-stimulated BrdU incorporation.

p70S6K human enzyme = p70S6K human enzyme (Homo sapiens, UniProt P23443, T412E); assay: p70S6K inhibition assay (IMAP FP); type: biochemical
Sequence of p70S6K human enzyme (P23443 whole entry T412E): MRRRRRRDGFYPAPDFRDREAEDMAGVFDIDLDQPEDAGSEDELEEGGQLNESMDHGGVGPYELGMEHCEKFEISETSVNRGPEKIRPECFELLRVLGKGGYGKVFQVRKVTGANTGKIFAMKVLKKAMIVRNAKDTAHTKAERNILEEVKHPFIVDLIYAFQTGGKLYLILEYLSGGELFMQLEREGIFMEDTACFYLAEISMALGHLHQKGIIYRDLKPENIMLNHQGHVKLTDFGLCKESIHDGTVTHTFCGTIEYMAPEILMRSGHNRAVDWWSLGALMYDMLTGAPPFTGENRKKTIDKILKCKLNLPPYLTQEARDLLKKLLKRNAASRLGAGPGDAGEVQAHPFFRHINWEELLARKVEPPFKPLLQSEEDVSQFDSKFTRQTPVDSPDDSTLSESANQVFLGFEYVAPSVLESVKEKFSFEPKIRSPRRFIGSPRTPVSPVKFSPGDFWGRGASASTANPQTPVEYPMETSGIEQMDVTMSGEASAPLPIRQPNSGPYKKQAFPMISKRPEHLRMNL
Procedure: (§3) Inhibition of Akt3 and p70S6K activity was determined using the IMAP™ FP Progressive Binding Kit (Molecular Devices product number R8127). […] Following the pre-incubation, 30 μM ATP was added to initiate the reaction. After 60 minutes at RT, Molecular Devices IMAP™ binding solution was added to bind phosphorylated substrate. After 30 minutes of incubation in the presence of the IMAP™ beads the fluorescence polarization was read and the ratio was reported as mP. IC50 results were calculated using the Prism software from Graphpad. The Ki values were determined according to the following formula: Ki=IC50/(1+([ATP Challenge]/EC50 ATP)).

Akt3 human enzyme = target: T5, Akt3 human enzyme (Homo sapiens, UniProt Q9Y243); assay: Akt3 inhibition assay (IMAP FP); type: biochemical
T5 construct: purchased Upstate Chemicon 14-502
T5 sequence (Q9Y243 whole entry): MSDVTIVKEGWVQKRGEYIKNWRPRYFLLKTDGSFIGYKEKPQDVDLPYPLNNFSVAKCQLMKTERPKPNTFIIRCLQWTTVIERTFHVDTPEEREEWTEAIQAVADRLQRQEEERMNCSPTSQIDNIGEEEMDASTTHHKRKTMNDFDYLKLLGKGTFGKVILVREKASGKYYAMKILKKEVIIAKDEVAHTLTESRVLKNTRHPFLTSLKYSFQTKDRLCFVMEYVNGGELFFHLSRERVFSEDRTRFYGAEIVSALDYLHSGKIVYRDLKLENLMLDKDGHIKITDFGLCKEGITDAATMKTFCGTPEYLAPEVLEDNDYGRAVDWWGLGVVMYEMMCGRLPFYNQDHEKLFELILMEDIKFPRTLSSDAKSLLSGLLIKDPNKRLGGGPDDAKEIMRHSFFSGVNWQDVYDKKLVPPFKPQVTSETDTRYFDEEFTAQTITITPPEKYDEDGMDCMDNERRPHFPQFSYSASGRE
Procedure: as §3

[9] = system: monocytes, endothelial cells, and lymphocytes; conditions: cited from earlier work
[10] = system: VEGF-induced angiogenesis; conditions: 100 μM; cited from earlier work
[11] = 10 μM of test compound, 1 ng/mL LPS, 4 hours, read-out: IL-1β % (Percent inhibition values for inhibition of cytokine secretion)
[12] = read-out: IL-6 % (Percent inhibition values for inhibition of cytokine secretion), 10 μM of test compound, 1 ng/mL LPS, 4 hours
[13] = 15 μmol/kg/oral on days 27 to 31

Structure (SMILES): CS(=O)(=O)Nc1cccc(CN2CCC[C@H](Nc3ccc4[nH]ncc4c3)C2)c1 [Compound 1.091, (S)-N-(3-((3-(1H-indazol-5-ylamino)piperidin-1-yl)methyl)phenyl)methanesulfonamide]
- eosinophil influx (BALF) ([1]; dosed i.t. to day 30, anti-inflammatory dosing paradigm): reduction of eosinophils
- activity at 10 µM [2, 11]: 166%
- IL-1β levels in BALF [3]: reduction in IL-1β
- LPS-induced pulmonary neutrophilia influx (BALF) ([3]; intratracheal dosing one hour prior to LPS challenge): significant reduction
- concentration at 2.5 h [4]: 123 nM
- Cmax [5]: BLQ
- Tmax [5]: BLQ
- Vz_F [5]: BLQ
- t½ [5]: BLQ
- AUC (0-last) ([5]; time zero through last observable value): BLQ
- airway hyperreactivity ([6]; days 27 to 30): prevention of airway hyperreactivity

Structure (SMILES): NC(=O)Cn1ccc2cc(CN3CC[C@@H](Nc4cccc5cnccc45)C3)ccc21 [Compound 2.059, (R)-2-(5-((3-(isoquinolin-5-ylamino)pyrrolidin-1-yl)methyl)-1H-indol-1-yl)acetamide]
- activity at 10 µM [2, 12]: 0%
- Percent inhibition at 1 µM (ERK1): ~50%
- Percent inhibition Mnk2 at 1 μM (Mnk2): 49
- IL-1β levels in BALF [3]: reduction in IL-1β
- activity at 1 µM (ERK2): ~50%
- airway hyperreactivity ([6]; days 27 to 31): prevention of airway hyperreactivity

Structure (SMILES): CS(=O)(=O)Nc1cccc(CN2CCC[C@@H](Nc3ccc4[nH]ncc4c3)C2)c1 [Compound 1.093, (R)-N-(3-((3-(1H-indazol-5-ylamino)piperidin-1-yl)methyl)phenyl)methanesulfonamide]
- IC50 (human neutrophils): 363 µM

Structure (SMILES): CS(=O)(=O)Nc1cccc(CN2CC[C@@H](Nc3cccc4cnccc34)C2)c1 [Compound 2.038, (R)-N-(3-((3-(isoquinolin-5-ylamino)pyrrolidin-1-yl)methyl)phenyl)methanesulfonamide]
- inhibition of eotaxin-induced human eosinophil chemotaxis (human eosinophils): inhibited
- concentration of Eotaxin in BALF [1, 13]: reduced levels
- concentration of IL-5 in BALF [1, 13]: reduced levels
- concentration of IL-13 in BALF [1, 13]: reduced levels
- airway eosinophil infiltration (eosinophils per ml of BALF) ([1]; dosed orally to day 31, anti-inflammatory dosing paradigm): reduced
- inhibition of eotaxin-induced murine eosinophil chemotaxis (murine eosinophils): inhibited
- airway hyperreactivity to metacholine on Day 32 ([6]; oral 15 μMol/kg once a day, days 27 to 31): prevention of airway hyperreactivity

Structure (SMILES): Cc1ccc(CN2CC[C@@H](Nc3cccc4cnccc34)C2)cc1OCCO [Compound 2.064, (R)-2-(5-((3-(isoquinolin-5-ylamino)pyrrolidin-1-yl)methyl)-2-methylphenoxy)ethanol]
- Ki (ROCK1): 0.0041 µM
- Ki (ROCK1; read-out: ROCK1 Ki, average): 0.0041 µM
- activity at 10 µM [2, 11]: 14.3%
- activity at 10 µM ([2]; 10 μM of test compound, 1 ng/mL LPS, 4 hours, read-out: TNF-α % (Percent inhibition values for inhibition of cytokine secretion)): 66.2%
- activity at 10 µM [2, 12]: 45.7%
- concentration at 15 min [7]: 202 nM
- Percent of PDGF Induced Proliferation at 1 μM Avg ([8]; 1 μM, 10 ng/mL PDGF): 53.1%
- Percent of PDGF Induced Proliferation at 10 μM Avg ([8]; 10 μM, 10 ng/mL PDGF): 56.2%
- Proliferation at 1 μM ([8]; average percent of PDGF stimulated proliferation at 1 μM test compound): 53.1%
- Proliferation at 10 μM ([8]; average percent of PDGF stimulated proliferation at 10 μM test compound): 56.2%
- Ki (p70S6K human enzyme; average, read-out: p70S6K Ki): 0.178 µM
- Ki (p70S6K human enzyme; read-out: p70S6K Ki, Avg): 0.178 µM
- Ki (Akt3 human enzyme; average, read-out: Akt3 Ki): 0.382 µM
- Ki (Akt3 human enzyme; read-out: Akt3 Ki, Avg): 0.382 µM

Structure (SMILES): O=S(=O)(c1cccc2cnccc12)N1CCCNCC1 [Fasudil]
- expression of IL-1β, TNFα, and various other cytokines [9]: suppress expression
- new vessel formation [10]: new vessel formation was prevented
